Molecular target: GPR35 (Homo sapiens, UniProt Q9HC97)
Assay: PathHunter β-Arrestin assay, activation of GPR35 expressed in cultured cells (DiscoverX)
Type: cell-based
Details: for activation of GPR35: Example 2, HMO screening, highest concentration tested 10 mM; for EC50: dose-response by 3× dilutions from 10 mM, duplicate, β-arrestin recruitment
Description: Six human milk oligosaccharides (LNnT, LNT, 2′FL, diFL, 6′SL and 3′SL) were screened for their ability to activate the GPR35 receptor in an in vitro assay. The screening was conducted by DiscoverX (Fremont, Ca, USA) using the PathHunter β-Arresin assay. This assay monitors the activation of GPR35 expressed in cultured cells, using Enzyme Fragment Complementation with β-galactosidase (β-Gal) as the functional reporter. […] EA is fused to β-Arrestin and PK is fused to GPR35. When the GPR35 is activated and β-Arrestin is recruited to the receptor, PK and EA complementation occurs, restoring β-Gal activity, which is measured using chemiluminescent Detection Reagents.
The GPR35 cell line was expanded from frozen stocks and cultured according to standard procedures. Cells were seeded in a total volume of 20 μL into white walled, 384-well microplates and incubated at 37° C. for the appropriate time prior to testing. All testing was done in duplicate.
HMO samples were shipped to DiscoverX as concentrated stocks in Phosphate Buffered saline. On the test day, a 5× compound working intermediate was prepared in PBS. An amount of 5 μL of 5× sample was added to cells and incubated at room temperature for 3 to 5 hours.
Assay signal was generated through a single addition of 12.5 μL (50% v/v) of PathHunter Detection reagent cocktail, followed by one-hour incubation at room temperature. Microplates were read following signal generation with a PerkinElmer Envision™ instrument for chemiluminescent signal detection.
Zaprinast (which is known to be an activator of GPR35) was used as positive control.
Percentage activity was calculated using the following formula: % Activity=100%×(mean RLU of test sample−mean RLU of vehicle control)/(mean MAX control ligand−mean RLU of vehicle control).
Dose-responses were generated by iterative 3× dilutions of the highest concentration tested (10 mM).
The samples were diluted in 1×PBS (pH˜7) at 5× concentrations and sent to DiscoverX. The GPR35 activation assay was performed as described in Example 2.

Chain of GPR35 (Q9HC97 whole entry): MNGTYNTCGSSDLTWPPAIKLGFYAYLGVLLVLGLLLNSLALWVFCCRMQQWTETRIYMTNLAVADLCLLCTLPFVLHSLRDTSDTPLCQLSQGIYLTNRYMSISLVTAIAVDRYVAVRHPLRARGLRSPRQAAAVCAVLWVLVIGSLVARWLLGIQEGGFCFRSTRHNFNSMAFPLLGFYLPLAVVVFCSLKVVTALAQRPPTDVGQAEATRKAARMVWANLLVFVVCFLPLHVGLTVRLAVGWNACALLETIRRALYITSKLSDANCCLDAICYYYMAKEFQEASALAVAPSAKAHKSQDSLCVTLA

| Compound | activation of GPR35 | EC50 [mM] |
| --- | --- | --- |
| CC(=O)N[C@H]1[C@H](O[C@H]2[C@@H](O)[C@@H](CO)O[C@@H](O[C@H]3[C@H](O)[C@@H](O)C(O)O[C@@H]3CO)[C@@H]2O)O[C@H](CO)[C@@H](O[C@@H]2O[C@H](CO)[C@H](O)[C@H](O)[C@H]2O)[C@@H]1O (mixture of isomers) [LNnT, lacto-N-neotetraose] | No activation |  |
| CC(=O)N[C@H]1[C@H]([C@H](O)[C@H](O)CO)O[C@@](O[C@H]2[C@@H](O)[C@@H](CO)O[C@@H](O[C@H]3[C@H](O)[C@@H](O)C(O)O[C@@H]3CO)[C@@H]2O)(C(=O)O)C[C@@H]1O (some centres unmarked) [3′SL, 3′ sialyllactose] | No activation |  |
| CC(=O)N[C@H]1[C@H]([C@H](O)[C@H](O)CO)O[C@@](OC[C@H]2O[C@@H](O[C@H]3[C@H](O)[C@@H](O)[C@H](O)O[C@@H]3CO)[C@H](O)[C@@H](O)[C@H]2O)(C(=O)O)C[C@@H]1O [6′SL, 6′-sialyllactose] |  | 6.5 |
| CC(=O)N[C@H]1[C@H](O[C@H]2[C@@H](O)[C@@H](CO)O[C@@H](O[C@H]3[C@H](O)[C@@H](O)C(O)O[C@@H]3CO)[C@@H]2O)O[C@H](CO)[C@@H](O)[C@@H]1O[C@@H]1O[C@H](CO)[C@H](O)[C@H](O)[C@H]1O (some centres unmarked) [LNT, lacto-N-tetraose] |  | 4.5 |
| C[C@@H]1O[C@@H](O[C@H]2[C@H](O[C@H]3[C@H](O[C@@H]4O[C@@H](C)[C@@H](O)[C@@H](O)[C@@H]4O)[C@@H](O)C(O)O[C@@H]3CO)O[C@H](CO)[C@H](O)[C@@H]2O)[C@@H](O)[C@H](O)[C@@H]1O (some centres unmarked) [diFL, difucosyllactose] | No activation |  |

— patent US12167742B2, “Nutritional composition comprising 6′SL and LNT in combination to improve the gastrointestinal barrier function” (SOCIETE DES PRODUITS NESTLE S.A., priority 2018, dated 2024)
